pIC50: −log10 of the molar value. Like-named read-outs stand apart in the source and are kept apart here.

The inhibition is the share of the control response that was lost under treatment. A low value points to a response near the control.

Data set [1] concerns herpes simplex virus type 1 (HSV-1). Also noted: method as in PMID 20523000. As to conditions: in vitro; cited from earlier work.
Data set [2] relates to human liver carcinoma HepG2 cells. More on the design: method as in PMID 20523000. The note with it: in vitro; cited from earlier work.
Data set [3] concerns HCT 116 cells. The data set can be described thus: MTS cell viability assay (cytotoxic / cytostatic activity). The note with it: for pIC50: Homo sapiens, 72 h incubation, read-out: concentration that caused 50% inhibition of growth (IC50). Format: cell-based, human. The procedure:
(§1) At the first stage of biological activity evaluation, the cytotoxicity of compounds 1–4 against mouse normal epidermal JB6 Cl41 cells, human breast cancer MDA-MB-231 cells, and colorectal carcinoma HCT 116 cells was determined by MTS assay, which is based on the cleavage of (3-(4,5-dimethylthiazol-2-yl)-5-(3-carboxymethoxyphenyl)-2-(4-sulfophenyl)-2H-tetrazolium) (MTS reagent) into a formazan product soluble in tissue culture medium.
(§2) That is why the cytostatic activity of compounds 1–4 was determined against JB6 Cl41, MDA-MB-231, and HCT 116 cell lines for 24, 48, and 72 h. […] The cytostatic effect of 2 was more prominent in colorectal carcinoma HCT 116 cells.
(§3) Figure 3 The cytostatic activity of compounds 1–4 against normal epidermal JB6 Cl41 cells, breast cancer MDA-MB-231 cells, and colorectal carcinoma HCT 116 cells. (A) JB6 Cl41, (B) MDA-MB-231, or (C) HCT 116 cells were treated with compounds 1–4 at concentrations of 1–100 µM for 24, 48, and 72 h. Cell viability was estimated using the MTS assay. Data are represented as the mean ± SD as determined from triplicate experiments.
(§4) To determine the cytotoxicity of compounds 1–4, JB6 Cl41, MDA-MB-231, and HCT 116 cells (1.0 × 10^4) were seeded in 200 µL of complete MEM/5% FBS, DMEM/10% FBS, and McCoy’s 5A/10% FBS medium, respectively, and incubated for 24 h at 37 °C in 5% CO2 incubator. The attached cells were incubated with fresh medium containing various concentrations of 1–4 (0–100 µM) or equivalent volume of DMSO (control) for additional 24 h. Subsequently, the cells were incubated with 15 µL MTS reagent for 3 h, and the absorbance of each well was measured at 490/630 nm using Power Wave XS microplate reader (BioTek, Winooski, VT, USA). All experimental conditions were assessed in triplicate.
(§5) To determine the effect of compounds 1–4 on cell proliferation, the tested cell lines (8 × 10^3 cells/200 µL) were treated with tested compounds at concentrations of 1, 10, 50, and 100 µM or equivalent volume of DMSO (control) and incubated for additional 24, 48, and 72 h at 37 °C in 5% CO2. MTS reagent (20 µL) was added to each well, and the cells were incubated for additional 3 h in 5% CO2 incubator. Absorbance was measured at 490/630 nm by microplate reader. All experimental conditions were assessed in triplicate.
Background: Tetrazolium assays rely on reduction of a dye to a coloured formazan, in cell work by metabolically active cells.

Data set [4] concerns MDA-MB-231 cells. The data set is described as above. Format: cell-based, human. As to conditions: for pIC50: Homo sapiens, 72 h incubation, read-out: concentration that caused 50% inhibition of growth (IC50). Here is the method:
as §1, §2, §3, §4, §5

Assay in data set [5]: as above
The format is cell-based, human. The note with it: human, 100 µM, 24 h incubation, read-out: suppression of cell viability. The procedure:
as §1, §2, §3, §4, §5

The next data set relates to JB6 Cl41 cells. Described as above. Format: cell-based, mouse. As to conditions: Mus musculus, 72 h incubation, read-out: concentration that caused 50% inhibition of growth (IC50). The procedure:
as §1, §2, §3, §4, §5

Assay in data set [6]: as above
The format is cell-based, mouse. As to conditions: mouse, JB6 Cl41 cells (normal epidermal), 100 µM, 24 h incubation, read-out: suppression of cell viability. Here is the method:
as §1, §2, §3, §4, §5

The test system of data set [7] is HCT 116 cells. Briefly: Wound healing (cell migration) assay. The format is cell-based, human. The note with it: 20 µM, 48 h. From the text:
(§6) The metastasis process is proven to be the leading cause of cancer-related death. Metastasis is a multistep process that includes migration and invasion of cancer cells, hallmarks of malignancy. Therefore, we investigated the ability of compounds 1–4 to inhibit the migration of breast cancer MDA-MB-231 cells and colorectal carcinoma HCT 116 cells with high metastatic potential. […] Compounds 1, 3, and 4 prevented HCT 116 cell migration by 36%, 30%, and 24%, respectively (Figure 5). […]
(§7) Figure 5 The effect of compounds 1–4 on migration of human cancer cells. MDA-MB-231 (A,B) and HCT 116 (C,D) cells migration distance was estimated by measuring the width of the wound and expressed as a percentage of each control for the mean of wound closure area. All experiments were repeated at least three times in each group (n = 18 for control and each compound, n—quantity of photos). The magnification of representative photos is ×10. Results are expressed as the mean ± standard deviation (SD). The asterisks (* p < 0.05, ** p < 0.01, *** p < 0.001) indicate a significant decrease in migration of cells treated with compounds compared with the control.
(§8) MDA-MB-231 and HCT 116 cells (3 × 10^5 cells/mL) were seeded into six-well plates and grown to 80% confluence for 24 h. After removing the culture medium, the cells’ monolayer was scraped with a 200 µL sterile pipette tip to create a straight scratch. Then, MDA-MB-231 and HCT 116 cells were treated with equivalent volume of DMSO (control) or 1–4 at concentration of 20 µM and incubated for 48 h. All experiments were conducted in triplicate for each group. For the image analysis, cell migration into the wound area was photographed at the stages of 0 and 48 h using a Motic AE 20 microscope and ImageJ software. The cell migration distance was estimated by measuring the width of the wound and expressed as a percentage of each control for the mean wound closure area.

The test system of data set [8] is MDA-MB-231 cells. Briefly: Wound healing (cell migration) assay. The format is cell-based, human. The note with it: 20 µM, 48 h.
Text: as §6, §7, §8

For data set [9], the system named is HCT 116 cells. The data set can be described thus: Soft agar colony formation assay. The format is cell-based. As to conditions: Homo sapiens, 336 h, 14 days. Here is the method: (§9) The formation of colonies is one of the most stringent characteristics for malignant transformation in cells. In the present study the soft agar assay was used to investigate the effect of compounds 1–4 on capability of cancer cells to form colonies.
(§10) Figure 4 The effect of compounds 1–4 on colony formation in human cancer cells. MDA-MB-231 (A) or HCT 116 cells (B) (2.4 × 10^4) were treated with or without investigated compounds (20 µM) and applied onto 0.3% Basal Medium Eagle (BME) agar containing 10% FBS, 2 mM L-glutamine, and 25 µg/mL gentamicin. After 14 days of incubation, the number of colonies was evaluated under a microscope with the aid of the ImageJ software program. Results are expressed as the mean ± standard deviation (SD). The asterisks (** p < 0.01, *** p < 0.001) indicate a significant decrease in colony number of cancer cells treated by compounds compared with control.
(§11) To estimate the effects of 1–4 on colony formation (phenotype expression), MDA-MB-231 and HCT 116 cells (2.4 × 10^4 cells/200 µL) were treated equivalent volume of DMSO (control) or with compounds 1–4 (20 µM) in 1 mL of 0.3% Basal Medium Eagle (BME) agar containing 10% FBS, 2 mM L-glutamine, and 25 µg/mL gentamicin. The cultures were maintained in a 37 °C, 5% CO2 incubator for 14 days, and the cell colonies were scored using a Motic AE 20 microscope (XiangAn, Xiamen, China) and ImageJ software bundled with 64-bit Java 1.8.0_112 (NIH, Bethesda, MD, USA).

The subject of data set [10] is MDA-MB-231 cells. The data set can be described thus: Soft agar colony formation assay. The note with it: Homo sapiens, 336 h, 14 days. Format: cell-based. Here is the method:
as §9, §10, §11

A further data set concerns CNS cancer XF498. Also noted: method as in PMID 15104487. As to conditions: cited from earlier work.
For the next data set, the system named is colon cancer HCT15. Also noted: method as in PMID 15104487. The note with it: cited from earlier work.
The test system of another data set is melanoma SK-MEL-2. More on the design: method as in PMID 15104487. The note with it: SK-MEL-2 cells; cited from earlier work.
The test system of another data set is human lung cancer A549. More on the design: method as in PMID 15104487. The note with it: cited from earlier work.
The next data set has as its system ovarian cancer SK-OV-3. More on the design: method as in PMID 15104487. As to conditions: SK-OV-3 cells; cited from earlier work.
Setting [11] is: HCT 116 cells (colorectal carcinoma).
Where [12] appears, read: MDA-MB-231 cells (breast cancer).

With `CCCCC/C=C\CCCCCCCCCCCCC(=O)OC[C@@H](C)CCC[C@@H](C)[C@H]1[C@@H](O)[C@H](O)[C@@H]2[C@]1(C)CC[C@@H]1[C@@]3(C)CC[C@H](O)C[C@@H]3[C@@H](O)[C@@H](O)[C@]12O` [(25S)-5α-cholestane-3β,6α,7α,8,15α,16β-hexaol-26-yl 14′Z-eicosenoate], in data set [1], the “inhibitory activity against HSV-1” value is recorded as “did not possess inhibitory activity”. The “inhibitory activity against HepG2 cells” value in data set [2] is “did not possess inhibitory activity”.

As to `CCCCCCC=CCCCCC=CCCCC(=O)OCC(C)CCCC(C)C1C(O)C(O)C2C3CC(O)C4CC(O)CCC4(C)C3CCC12C` [Compound 1, (25S)-5α-cholestane-3β,6β,15α,16β-tetraol-26-yl 5′Z,11′Z-octadecadienoate], the pIC50 is 4.14 in the data set on HCT 116 cells [3], 4.13 in the data set with MDA-MB-231 cells [4] and 4.09 in the data set on JB6 Cl41 cells. For the same molecule, the cytotoxicity at 24 h, 100 µM in data set [5] (setting [11]), in data set [5] (setting [12]) and in [6] was under 15% throughout. Also, in the data set with HCT 116 cells [7], the “prevention of cell migration” value is on record as 36%. For the same molecule, the “prevention of cell migration compared to control” value with MDA-MB-231 cells [8] is reported as 42%. The results for the inhibition at 20 µM with HCT 116 cells [9] and in the data set with MDA-MB-231 cells [10] were 20% and 17%, respectively.

Take `CCCCCCCCC=CCCCCC=CCCCC(=O)OCC(C)CCCC(C)C1C(O)C(O)C2C3CC(O)C4CC(O)CCC4(C)C3CCC12C` [Compound 3, (25S)-5α-cholestane-3β,6β,15α,16β-tetraol-26-yl 5′Z,11′Z-eicosadienoate]: the pIC50 with HCT 116 cells [3] was 4.15; in the data set with MDA-MB-231 cells [4], 4.14; with JB6 Cl41 cells, 4.10. The cytotoxicity at 24 h, 100 µM in data set [5] (setting [11]), in data set [5] (setting [12]) and in data set [6] was under 15% throughout. Moreover, the “prevention of cell migration” value in the data set on HCT 116 cells [7] was 30%. For the same molecule, the “inhibitory activity against cell migration (in words)” value in the data set with MDA-MB-231 cells [8] is given as “moderate inhibitory activity”. Further, the inhibition at 20 µM turned out to be 18% in the data set on HCT 116 cells [9] and 15% in the data set on MDA-MB-231 cells [10].

For `CCCCCCCCCCCCC=CCCCCCC(=O)OCC(C)CCCC(C)C1C(O)C(O)C2C3CC(O)C4CC(O)CCC4(C)C3CCC12C` [Compound 4, (25S)-5α-cholestane-3β,6β,15α,16β-tetraol-26-yl 7′Z-eicosenoate], the “toxicity against cell line” value in the data set with HCT 116 cells [3] (three days of treatment) and in the data set with MDA-MB-231 cells [4] (three days of treatment) was “non-toxic” throughout. The cytotoxicity at 24 h, 100 µM in data set [5] (setting [11]), in data set [5] (setting [12]) and in data set [6] was under 15% each time. In the data set with HCT 116 cells [7], the “prevention of cell migration” value came to 24%. Moreover, the “inhibitory activity against cell migration (in words)” value with MDA-MB-231 cells [8] is “moderate inhibitory activity”. Besides, the inhibition at 20 µM is 16% in the data set with HCT 116 cells [9] and 10% with MDA-MB-231 cells [10].

As to `CCCCCCC=CCCCCCCCCCC(=O)OCC(C)CCCC(C)C1C(O)C(O)C2C3CC(O)C4CC(O)CCC4(C)C3CCC12C` [Compound 2, (25S)-5α-cholestane-3β,6β,15α,16β-tetraol-26-yl 11′Z-octadecenoate], the pIC50 in the data set on HCT 116 cells [3] is 4.51; in the data set on MDA-MB-231 cells [4], 4.48; in the data set on JB6 Cl41 cells, 4.40. The cytotoxicity at 24 h, 100 µM in data set [5] (setting [11]), in data set [5] (setting [12]) and in data set [6] was under 15% each time. Besides, the “prevention of cell migration” value in the data set on HCT 116 cells [7] was 73%. In addition, the “prevention of cell migration compared to control” value in the data set on MDA-MB-231 cells [8] came out at 50%. The inhibition at 20 µM with HCT 116 cells [9] was found to be 27%; in the data set with MDA-MB-231 cells [10], 26%.

Consider `CC(C)[C@H](/C=C/[C@@H](C)[C@H]1C[C@@H](O)[C@H]2[C@@H]3C[C@H](O)[C@H]4C[C@@H](O)CC[C@]4(C)[C@H]3CC[C@@]21C)CO` [certonardosterol D2], for which the “effective dose that inhibited viability of 50% cells (ED50)” value in the data set with CNS cancer XF498 is 0.07 µg/mL; in the data set with colon cancer HCT15 it was 0.01 µg/mL; in the data set on melanoma SK-MEL-2, 0.09 µg/mL; in the data set with human lung cancer A549, 0.15 µg/mL; in the data set with ovarian cancer SK-OV-3 it was 0.08 µg/mL.

These data come from publication PMC7281419, “New Conjugates of Polyhydroxysteroids with Long-Chain Fatty Acids from the Deep-Water Far Eastern Starfish Ceramaster patagonicus and Their Anticancer Activity” (Marine Drugs, 2020).
